Results published in ChEMBL document CHEMBL4321865, “Discovery of Novel Inhibitors of LpxC Displaying Potent in Vitro Activity against Gram-Negative Bacteria” (J Med Chem, 2020).
In brackets after ≈: the same amount, converted by molar mass.

Legend:
physchem [1] = details: DMSO, pH 7
Description: Solubility of the compound in DMSO at pH 7 incubated for 24 hrs by LC-UV method

Pseudomonas aeruginosa [2] = assay: microbe, parasite or virus in culture; details: ATCC 27853
Description: Antimicrobial activity against Pseudomonas aeruginosa ATCC 27853 by broth microdilution method

physchem [3] = details: n-octanol/phosphate buffered saline, pH 7.4
Description: n-Octanol/phosphate buffered saline partition coefficient, log D of the compound at pH 7.4 by LC-UV method

Pseudomonas aeruginosa [4] = assay: Antimicrobial activity against Pseudomonas aeruginosa PA2616 harboring delta mexAB-OprM mutant by broth microdilution method; type: functional
[5] = test system: T1, UDP-3-O-acyl-N-acetylglucosamine deacetylase (Escherichia coli K-12), P0A725 [C125S]
T1 sequence (whole entry): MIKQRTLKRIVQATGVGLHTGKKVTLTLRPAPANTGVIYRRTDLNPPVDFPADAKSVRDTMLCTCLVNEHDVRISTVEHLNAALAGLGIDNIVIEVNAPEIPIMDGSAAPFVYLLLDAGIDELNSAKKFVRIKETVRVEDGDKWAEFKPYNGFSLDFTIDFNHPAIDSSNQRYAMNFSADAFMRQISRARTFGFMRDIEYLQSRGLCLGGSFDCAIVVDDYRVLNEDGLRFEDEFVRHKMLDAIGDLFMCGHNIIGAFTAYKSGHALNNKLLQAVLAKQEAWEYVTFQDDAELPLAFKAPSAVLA

Pseudomonas aeruginosa [6] = assay: microbe, parasite or virus in culture; details: PAO1
Description: Antimicrobial activity against wild-type Pseudomonas aeruginosa PAO1 by broth microdilution method

physchem [7] = details: DMSO, pH 9
Description: Solubility of the compound in DMSO at pH 9 incubated for 24 hrs by LC-UV method

Escherichia coli [8] = assay: microbe, parasite or virus in culture; details: ATCC 25922
Description: Antibacterial activity against wild-type Escherichia coli ATCC 25922 by broth microdilution method

Klebsiella pneumoniae = assay: microbe, parasite or virus in culture; details: T 6474
Description: Antibacterial activity against multi-drug resistant Klebsiella pneumoniae T 6474 by broth microdilution method

[9] = test system: T2, UDP-3-O-acyl-N-acetylglucosamine deacetylase (Pseudomonas aeruginosa (strain ATCC 15692 / PAO1 / 1C / PRS 101 / LMG12228)), P47205 [C40S]
T2 sequence (whole entry): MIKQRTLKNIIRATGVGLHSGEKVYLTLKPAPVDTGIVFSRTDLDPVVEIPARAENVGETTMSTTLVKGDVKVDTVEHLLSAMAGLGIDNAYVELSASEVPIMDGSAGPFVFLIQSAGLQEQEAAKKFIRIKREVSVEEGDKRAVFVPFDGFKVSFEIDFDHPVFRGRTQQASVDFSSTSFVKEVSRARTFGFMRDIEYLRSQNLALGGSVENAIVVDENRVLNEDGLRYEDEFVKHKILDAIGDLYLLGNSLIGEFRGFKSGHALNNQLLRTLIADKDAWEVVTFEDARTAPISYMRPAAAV

[10] = Apparent clearance in NMRI/ICR CD-1 mouse at 50 mg/kg, sc by LC-MS/MS analysis; type: ADME, organism-based; details: in vivo
[11] = mouse, plasma, 1 µM
Description: Protein binding in mouse plasma assessed as fraction unbound at 1 uM by equilibrium dialysis method

Escherichia coli [12] = assay: Antibacterial activity against Escherichia coli infected in cyclophosphamide-induced NMRI/ICR CD-1 mouse model of neutropenic thigh infection assessed as reduction in thigh bacterial load at 50 mg/kg, sc measured after 22 hrs relative to control; type: functional
in vivo = details: NMRI/ICR CD-1, mouse, sc, 50 mg/kg
Escherichia coli [13] = assay: Antibacterial activity against Escherichia coli infected in cyclophosphamide-induced NMRI/ICR CD-1 mouse model of neutropenic thigh infection assessed as reduction in thigh bacterial load at 450 mg/kg, sc administered as single dose measured after 22 hrs relative to control; type: functional
[14] = Cmax in NMRI/ICR CD-1 mouse at 50 mg/kg, sc by LC-MS/MS analysis; type: ADME, organism-based; set-up: dose 50 mg/kg, route subcutaneous; details: in vivo
Escherichia coli [15] = assay: Antibacterial activity against Escherichia coli infected in cyclophosphamide-induced NMRI/ICR CD-1 mouse model of neutropenic thigh infection assessed as reduction in thigh bacterial load at 112.54 mg/kg, sc administered at 5.5 hrs interval for 4 times relative to control; type: functional
Escherichia coli [16] = assay: Antibacterial activity against Escherichia coli infected in cyclophosphamide-induced NMRI/ICR CD-1 mouse model of neutropenic thigh infection assessed as reduction in thigh bacterial load at 150 mg/kg, sc measured after 22 hrs relative to control; type: functional
[17] = Tmax in NMRI/ICR CD-1 mouse at 50 mg/kg, sc by LC-MS/MS analysis; type: ADME, organism-based; details: in vivo
[18] = mouse, in vivo, sc, 50 mg/kg
Mus musculus = assay: Apparent unbound clearance in NMRI/ICR CD-1 mouse at 50 mg/kg, sc by LC-MS/MS analysis; type: ADME, organism-based; details: in vivo
physchem [19] = details: DMSO, pH 4
Description: Solubility of the compound in DMSO at pH 4 incubated for 24 hrs by LC-UV method

SMILES	solubility at 24 h (physchem [1])	MIC (Pseudomonas aeruginosa [2])	logD (physchem [3])	MIC (Pseudomonas aeruginosa [4])	ΔTm [5]	MIC (Pseudomonas aeruginosa [6])	solubility at 24 h (physchem [7])	MIC (Escherichia coli [8])	MIC (Klebsiella pneumoniae)	ΔTm [9]	other results
COc1ccc(-c2ccc3c(c2)CN(CC[C@](C)(C(=O)NO)S(C)(=O)=O)C3=O)c(F)c1	5 µg/mL (≈ 11.1 µM)	2 µg/mL (≈ 4.44 µM)	1.9	0.25 µg/mL (≈ 0.555 µM)	9.1 °C	2 µg/mL (≈ 4.44 µM)	22 µg/mL (≈ 48.8 µM)	≤ 0.06 µg/mL	≤ 0.06 µg/mL	11 °C	–
COc1ccc(-c2ccc3c(c2)oc(=O)n3CC[C@](C)(C(=O)NO)S(C)(=O)=O)c(F)c1	7 µg/mL (≈ 15.5 µM)	8 µg/mL (≈ 17.7 µM)	2.2	≤ 0.06 µg/mL	8.2 °C	4 µg/mL (≈ 8.84 µM)	66 µg/mL (≈ 146 µM)	0.5 µg/mL (≈ 1.11 µM)	4 µg/mL (≈ 8.84 µM)	11 °C	–
C[C@@](CCN1Cc2cc(C#CC#CC3(CO)CC3)cn2C1=O)(C(=O)NO)S(C)(=O)=O	–	0.5 µg/mL (≈ 1.15 µM)	–	–	9.9 °C	1 µg/mL (≈ 2.31 µM)	–	0.25 µg/mL (≈ 0.577 µM)	1 µg/mL (≈ 2.31 µM)	12.5 °C	CL/F [10]: 25.1 mL/min/kg; Fu [11]: 0.085%; fold change (FC) (Escherichia coli [12]): 2.1; AUC(0-t) at 24 h (in vivo): 33000 ng·h/mL; fold change (FC) (Escherichia coli [13]): 1; Cmax [14]: 20200 ng/mL; fold change (FC) (Escherichia coli [15]): 1.5; fold change (FC) (Escherichia coli [16]): 0.8; Tmax [17]: 30 min; fAUC [18]: 2810 ng·h/mL; CLu/F (Mus musculus): 295 mL/min/kg
COc1ccc(-c2cc3c(s2)C(=O)N(CC[C@](C)(C(=O)NO)S(C)(=O)=O)C3)c(F)c1	5 µg/mL (≈ 11 µM)	1 µg/mL (≈ 2.19 µM)	2.1	0.12 µg/mL (≈ 0.263 µM)	9.3 °C	0.5 µg/mL (≈ 1.1 µM)	36 µg/mL (≈ 78.9 µM)	≤ 0.06 µg/mL	0.25 µg/mL (≈ 0.548 µM)	12.4 °C	–
COc1ccc(-c2cnc3c(c2)CN(CCC(C)(C(=O)NO)S(C)(=O)=O)C3=O)c(F)c1 (racemic)	–	32 µg/mL (≈ 70.9 µM)	–	16 µg/mL (≈ 35.4 µM)	5.6 °C	> 32 µg/mL	–	32 µg/mL (≈ 70.9 µM)	> 32 µg/mL	7 °C	–
C[C@@](CCN1Cc2cc(C#Cc3ccc([C@H](O)CO)cc3)cn2C1=O)(C(=O)NO)S(C)(=O)=O	605 µg/mL (≈ 1270 µM)	1 µg/mL (≈ 2.1 µM)	0.5	–	11.1 °C	1 µg/mL (≈ 2.1 µM)	660 µg/mL (≈ 1390 µM)	0.5 µg/mL (≈ 1.05 µM)	1 µg/mL (≈ 2.1 µM)	12.7 °C	CL/F [10]: 10.8 mL/min/kg; Fu [11]: 0.016%; fold change (FC) (Escherichia coli [12]): 2.4; AUC(0-t) at 24 h (in vivo): 76500 ng·h/mL; Cmax [14]: 41300 ng/mL; fold change (FC) (Escherichia coli [16]): 0.4; solubility at 24 h (physchem [19]): 167 µg/mL (≈ 351 µM); Tmax [17]: 30 min; fAUC [18]: 1230 ng·h/mL; CLu/F (Mus musculus): 680 mL/min/kg
COc1ccc(-c2cn(CC[C@](C)(C(=O)NO)S(C)(=O)=O)c(=O)o2)c(F)c1	–	8 µg/mL (≈ 19.9 µM)	–	1 µg/mL (≈ 2.49 µM)	5.2 °C	8 µg/mL (≈ 19.9 µM)	–	8 µg/mL (≈ 19.9 µM)	16 µg/mL (≈ 39.8 µM)	9.9 °C	–
COc1ccc(-c2cn(CC[C@@](C)(C(=O)NO)S(C)(=O)=O)c(=O)o2)c(F)c1	–	> 32 µg/mL	–	16 µg/mL (≈ 39.8 µM)	1.9 °C	> 32 µg/mL	–	> 32 µg/mL	> 32 µg/mL	3.7 °C	–
